Laboratory results taken from ChEMBL document CHEMBL2331446, “Discovery of a potential anti-inflammatory agent: 3-oxo-29-noroleana-1,9(11),12-trien-2,20-dicarbonitrile” (J Med Chem, 2013).
Calls of active or inactive are those of the source. The rule behind the calls is not given here.

Assays:
Mus musculus [1] = experiment: Antiinflammatory activity in ICR mouse assessed as reversal in LPS-induced weight loss at 12.5 to 200 mg/kg, ip administered for 5 days prior to LPS-challenge measured from day 9 to 11 relative to control; format: functional, organism-based
RAW264.7 [2] = experiment: Effect on ERK level in mouse LPS-induced RAW264.7 cells at 0.1 to 0.4 uM incubated for 2 hrs prior to LPS-challenge measured after 30 mins by Western blot analysis; format: functional, cell-based
RAW264.7 [3] = experiment: Effect on JNK level in mouse LPS-induced RAW264.7 cells at 0.1 to 0.4 uM incubated for 2 hrs prior to LPS-challenge measured after 30 mins by Western blot analysis; format: functional, cell-based
RAW264.7 [4] = experiment: Effect on MAPK p38 level in mouse LPS-induced RAW264.7 cells at 0.1 to 0.4 uM incubated for 2 hrs prior to LPS-challenge measured after 30 mins by Western blot analysis; format: functional, cell-based
RAW264.7 [5] = experiment: Cytotoxicity against mouse RAW264.7 cells at 80 uM after 24 hrs by MTT assay; format: cell-based; settings: raw264.7, 24 h
RAW264.7 [6] = experiment: Antiinflammatory activity in mouse RAW264.7 cells assessed as inhibition of LPS-stimulated IL-6 mRNA expression incubated for 2 hrs prior to LPS-challenge measured after 8 hrs by quantitative real time PCR analysis relative to control; format: functional, cell-based
RAW264.7 [7] = experiment: Ratio of glycyrrhetinic acid to compound activity in mouse RAW264.7 cells; format: functional
RAW264.7 [8] = experiment: Antiinflammatory activity in mouse RAW264.7 cells assessed as inhibition of NO production after 24 hrs in presence of mifepristone; format: functional, cell-based
Mus musculus [9] = experiment: Antiinflammatory activity in ICR mouse assessed as reversal in LPS-induced weight loss at 12.5 to 200 mg/kg, ip administered for 5 days prior to LPS-challenge measured up to day 8 relative to control; format: functional, organism-based
Mus musculus [10] = experiment: Antiinflammatory activity in ICR mouse assessed as protection against LPS-induced sepsis at 50 mg/kg, ip administered for 5 days prior to LPS-challenge measured after 2 hrs; format: functional, organism-based; set-up: dose 50 mg/kg
RAW264.7 [11] = experiment: Inhibition of ERK phosphorylation in mouse LPS-induced RAW264.7 cells at 0.1 to 0.4 uM incubated for 2 hrs prior to LPS-challenge measured after 30 mins by Western blot analysis; format: cell-based
RAW264.7 [12] = experiment: Inhibition of JNK phosphorylation in mouse LPS-induced RAW264.7 cells at 0.1 to 0.4 uM incubated for 2 hrs prior to LPS-challenge measured after 30 mins by Western blot analysis; format: cell-based
[13] = molecular target: MAP kinase p38 (Mus musculus) (UniProt P47811+O08911+Q9WUI1+Q9Z1B7); experiment: Inhibition of MAPK p38 in mouse LPS-induced RAW264.7 cells at 0.1 to 0.4 uM incubated for 2 hrs prior to LPS-challenge measured after 30 mins by Western blot analysis; format: cell-based
[14] = molecular target: T1, NF-kappa-B inhibitor alpha (Mus musculus) (UniProt Q9Z1E3); experiment: Inhibition of IkappaBalpha in mouse RAW264.7 cells assessed as inhibition of LPS-stimulated NF-kappaB p65 subunit translocation to nucleus at 0.1 to 0.4 uM incubated for 2 hrs prior to LPS-challenge measured after 30 mins by Western blot analysis; format: cell-based
T1 sequence (whole entry): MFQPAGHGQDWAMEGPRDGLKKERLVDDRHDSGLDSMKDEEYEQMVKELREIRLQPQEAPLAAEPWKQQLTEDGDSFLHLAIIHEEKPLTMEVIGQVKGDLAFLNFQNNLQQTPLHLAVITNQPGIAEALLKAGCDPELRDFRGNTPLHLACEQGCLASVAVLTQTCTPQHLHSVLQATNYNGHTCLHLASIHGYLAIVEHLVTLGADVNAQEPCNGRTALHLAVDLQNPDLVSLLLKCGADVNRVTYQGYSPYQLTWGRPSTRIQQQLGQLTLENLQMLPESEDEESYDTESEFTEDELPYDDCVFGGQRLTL

[15] = molecular target: T1, NF-kappa-B inhibitor alpha (Mus musculus); experiment: Inhibition of IkappaBalpha degradation in mouse LPS-induced RAW264.7 cells assessed as increase in cytosolic IkappaB level at 0.1 to 0.4 uM incubated for 2 hrs prior to LPS-challenge measured after 30 mins by Western blot analysis; format: cell-based
[16] = molecular target: T1, NF-kappa-B inhibitor alpha (Mus musculus); experiment: Inhibition of IkappaB phosphorylation in mouse LPS-induced RAW264.7 cells at 0.1 to 0.4 uM incubated for 2 hrs prior to LPS-challenge measured after 30 mins by Western blot analysis; format: cell-based
RAW264.7 [17] = experiment: Antiinflammatory activity in mouse RAW264.7 cells assessed as inhibition of LPS-stimulated TNF-alpha mRNA expression at 0.2 to 0.4 uM incubated for 2 hrs prior to LPS-challenge measured after 8 hrs by quantitative real time PCR analysis; format: functional, cell-based
RAW264.7 [18] = experiment: Antiinflammatory activity in mouse RAW264.7 cells assessed as inhibition of LPS-stimulated IL-1beta mRNA expression at 0.1 to 0.4 uM incubated for 2 hrs prior to LPS-challenge measured after 8 hrs by quantitative real time PCR analysis; format: functional, cell-based
RAW264.7 [19] = experiment: Antiinflammatory activity in mouse RAW264.7 cells assessed as inhibition of LPS-stimulated IL-6 mRNA expression at 0.1 to 0.4 uM incubated for 2 hrs prior to LPS-challenge measured after 8 hrs by quantitative real time PCR analysis; format: functional, cell-based
RAW264.7 [20] = experiment: Antiinflammatory activity in mouse RAW264.7 cells assessed as inhibition of LPS-induced iNOS mRNA expression at 0.1 to 0.4 uM incubated for 2 hrs prior to LPS-challenge measured after 8 hrs by qPCR analysis; format: functional, cell-based
RAW264.7 [21] = experiment: Antiinflammatory activity in mouse RAW264.7 cells assessed as inhibition of LPS-induced iNOS protein expression incubated for 2 hrs prior to LPS-challenge measured after 24 hrs by Western blot analysis; format: functional, cell-based
RAW264.7 [22] = experiment: Cytotoxicity against mouse LPS-challenged RAW264.7 cells at 80 uM after 24 hrs by MTT assay; format: cell-based; settings: raw264.7, 24 h
RAW264.7 [23] = experiment: Antiinflammatory activity in mouse RAW264.7 cells assessed as inhibition of LPS-induced NO production incubated for 2 hrs prior to LPS-challenge measured after 24 hrs by Griess method; format: functional, cell-based
RAW264.7 [24] = experiment: Antiinflammatory activity in mouse RAW264.7 cells assessed as inhibition of LPS-induced NO production at 50 uM incubated for 2 hrs prior to LPS-challenge measured after 24 hrs by Griess method; format: functional
Mus musculus [25] = experiment: Antiinflammatory activity in ICR mouse assessed as protection against LPS-induced sepsis at 12.5 to 200 mg/kg, ip administered for 5 days prior to LPS-challenge measured after 2 hrs post last dose; format: functional, organism-based

inhibition [13]: Active
inhibition [14]: Active
inhibition [15]: Active
inhibition [16]: Active
IC50 (RAW264.7 [23]): 200 nM
Structure (SMILES): CC1(C)C(=O)C(C#N)=C[C@]2(C)C3=CC=C4[C@@H]5C[C@@](C)(C#N)CC[C@]5(C)CC[C@@]4(C)[C@]3(C)CC[C@@H]12
Activity (Mus musculus [1]): Active
Activity (RAW264.7 [2]): inactive
Activity (RAW264.7 [3]): inactive
Activity (RAW264.7 [4]): inactive
Activity (RAW264.7 [5]): Non-toxic
inhibition (RAW264.7 [6]): inactive
Ratio (RAW264.7 [7]): 1000
inhibition (RAW264.7 [8]): Active
Activity (Mus musculus [9]): inactive
Activity (Mus musculus [10]): Active
inhibition (RAW264.7 [11]): Active
inhibition (RAW264.7 [12]): Active
inhibition (RAW264.7 [17]): Active
inhibition (RAW264.7 [18]): Dose-dependent effect
inhibition (RAW264.7 [19]): Dose-dependent effect
inhibition (RAW264.7 [20]): Active
inhibition (RAW264.7 [21]): Dose-dependent effect
Activity (RAW264.7 [22]): Non-toxic
inhibition at 50 µM (RAW264.7 [24]): 99.1%
Activity (Mus musculus [25]): inactive
